In patent US20140179607A9 (IRONWOOD PHARMACEUTICALS, INC, priority 2009, published 2014):
One block for each compound: values may come before it. Positions of bridges follow the written chain, without caps; N, C: chain ends. Non-standard residues stand in square brackets, D forms with d. Residues, ends and D or L forms follow the SMILES beside them. pS = N[C@@H](COP(=O)(O)O)C(=O)O

What was measured:
[1] = In vitro metabolism in mouse jejunum loop fluid; type: in vitro ADME; conditions: for metabolism in mouse jejunum fluid (words) / remaining at 2 h, 100 μg/mL: 37° C.; for metabolism in mouse jejunum fluid (words): up to 120 minutes; for remaining at 2 h, 100 μg/mL: mouse jejunum loop fluid, pH 8, mouse jejunal loop fluid, after 120 minutes, read-out: percent remaining
Experimental: The purpose of this study was to determine the stability of phosphorylated peptides in mouse jejunal loop fluid. […] The isotopically labeled peptide 2 was synthesized with ^13C, ^15N-labeled alanine and leucine (i.e., with a sequence CCpS[^13C6, ^15N]LCCNP[^13C6, ^15N]ACTGC).
Each peptide was synthesized by American Peptide Company, Inc., and was stored desiccated at −20° C. A 1 mg/mL solution for each of the non-labeled peptides was prepared in 1 M tris (hydroxymethyl) aminomethane hydrochloride (Tris-HCl), pH 8 just prior to conducting the mouse intestinal loop fluid assay. A 500 ng/mL solution of ^13C, ^15N-labeled peptide 2 was prepared in 0.1% formic acid in water and was utilized to dilute the jejunum samples for post-assay LC-MS/MS analysis.
To collect the fluid, mice were fasted overnight with full access to water. They were then anesthetized with isofluorane for surgery and subjected to laparotomy in which the small intestine was exteriorized. Jejunum loops of 3 to 4 cm in length were made with sutures starting at 7 cm from the pyloric sphincter of the stomach. Once the loops were formed, they were injected with 200 μL of phosphate buffered saline (PBS) buffer (10 mM, pH 7.4). The abdominal wall and skin of the animals were then sutured, and the animals were allowed to recover for 30 minutes. Following recovery, the animals were sacrificed, the loops were then excised and the fluid inside was recovered and stored at −80° C. until use.
For each peptide, 25 μL of the 1 mg/mL peptide stock solution was added to 25 μL of 1 M Tris-HCl and 25 μL of 10× calf intestinal phosphatase (CIP) buffer containing 500 mM Tris-HCl, 1 M sodium chloride (NaCl), 0.1 mM magnesium chloride (MgCl2), pH 8. The reactions were initiated by adding 175 μL of the mouse jejunum loop fluid or 175 μL of the 1 M Tris-HCl pH8 buffer for the control reactions. The final concentration of each peptide was 100 μg/mL. The reactions were continuously mixed and maintained at 37° C. on a plate shaker. At 0, 2, 5, 10, 20, 30, 60, 90 and 120 minutes after adding the mouse intestinal loop fluid, a 25 μL aliquot was taken and added to 25 μL of 4° C. 12% trichloroacetic acid to stop the reaction. An additional 200 μL of 0.1% formic acid in water was added to these reactions for dilution purposes. These samples were then further diluted by taking 20 μL of each sample and adding it to 480 μL of 0.1% formic acid in water containing 500 ng/mL of the internal standard 13C, 15N -labeled peptide 2.
All samples were analyzed using an Applied Biosystems/MDS SCIEX API 4000 triple quadrupole mass spectrometer equipped with a high-performance liquid chromatography (HPLC) system. The mass spectrometer was operated in multiple reaction monitoring (MRM) mode, with resolution set to 1.2 Da.
The LC-MS/MS data were processed using Analyst version 1.4.2 software (Applied Biosystems/MDS SCIEX). The peak area ratio (ratio of analyte peak area to internal standard peak area) was used to calculate the percent remaining of each peptide.

[2] = target: T1, Calf intestinal alkaline phosphatase (CIP) (Bos taurus, UniProt P19111); assay: Alkaline phosphatase reaction (dephosphorylation of peptide substrates, LCMS); type: in vitro ADME
T1 construct: purchased New England BioLabs, Ipswich, Mass; M0290S
Experimental: (§1) For the alkaline phosphatase reactions, peptide stocks were prepared at 1 mg/mL in 0.1 M Tris-HCl pH 8, which were stored at −20° C. until assays were conducted. For the acid phosphatase reactions, peptide stocks were prepared at 1 mg/mL in 50 mM sodium phosphate pH 6, which was stored at −20° C. until assays were conducted.
Calf intestinal alkaline phosphatase (CIP) was obtained from New England BioLabs, Ipswich, Mass. Cat # M0290S. The CIP reaction solution was prepared by dilution with buffer (50 mM KCl, 10 mM Tris-HCl pH 8, 1 mM MgCl2, 50% glycerol) to 0.5 units/μL. The alkaline phosphatase reaction solutions were assembled in 20 μL quantities containing: • 2 μL 10× CIP buffer (1M NaCl, 500 mM Tris-HCl pH 8, 100 mM MgCl2) • 2 μL peptide stock (1 mg/mL) • 12 μL H2O • 4 μL alkaline phosphatase (0, 0.5 or 2 units)
The reaction solutions were mixed gently and incubated for 90 minutes at 37° C. These reaction solutions were stored at −20° C. until analysis. For analysis, the reaction solutions were diluted from 7.5 μL of CIP treated peptide to 50 μL with 0.1% formic acid in water to a final concentration of 10 μM.
Control reactions were assembled for enzyme activity containing 10 mM p-nitrophenylphosphate in place of peptide. After incubation, the reactions were diluted with 0.1 mL of 100 mM borate buffer pH 9 and read at the absorbance of 405 nm to monitor p-nitrophenol appearance.

[3] = target: T2, human prostate acid phosphatase (HuPrAP) (Homo sapiens, UniProt P15309); assay: Acid phosphatase reaction, human prostate acid phosphatase; type: in vitro ADME; conditions: Human prostatic acid phosphatase pH 5, 90 minutes at 37° C.
T2 construct: purchased MP Biochemicals, Solon, Ohio 153872
T2 sequence (P15309 33-386): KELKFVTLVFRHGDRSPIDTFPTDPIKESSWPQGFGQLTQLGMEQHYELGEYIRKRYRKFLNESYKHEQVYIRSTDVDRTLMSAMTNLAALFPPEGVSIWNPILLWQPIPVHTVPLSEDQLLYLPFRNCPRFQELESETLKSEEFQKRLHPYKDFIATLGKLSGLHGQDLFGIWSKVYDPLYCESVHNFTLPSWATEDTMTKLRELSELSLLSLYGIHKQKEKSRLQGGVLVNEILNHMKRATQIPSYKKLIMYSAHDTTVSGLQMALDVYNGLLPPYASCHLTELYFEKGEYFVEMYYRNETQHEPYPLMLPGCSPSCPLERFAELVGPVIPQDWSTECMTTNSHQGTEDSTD
Experimental: as §1
(§2) Potato acid phosphatase (PoAP) was obtained from Sigma, St. Louis, Miss. Cat #P1146 and human prostate acid phosphatase (HuPrAP) was obtained from MP Biochemicals, Solon, Ohio. Cat # 153872. The acid phosphatases were dissolved to provide a solution containing 0.5 units AP/μL using 50 mM sodium acetate pH 5, 0.2 mM MgCl2. The acid phosphatase reactions were assembled in 20 μL quantities containing: • 2 μL 10× acid phosphatase buffer (500 mM sodium acetate pH 5, 2 mM MgCl2) • 2 μL peptide stock (1 mg/mL) • 12 μL H2O • 4 μL acid phosphatase (0.5 or 2 units)
(§3) The reaction solutions were mixed gently and incubated for 90 minutes at 37° C. The reaction solutions were stored at −20° C. for later analysis. For analysis, 7.5 μL acid phosphatase reactions were diluted to 50 μL with 0.1% formic acid in water to a final concentration of 10 μM. The control reactions for enzyme activity were assembled and diluted to 10 mM p-nitrophenylphosphate in place of peptide. After incubation, the reactions were diluted with 0.1 mL of 100 mM borate buffer pH 9 and read at the absorbance of 405 nm to monitor p-nitrophenol appearance.

[4] = oral administration at therapeutic dose levels; cited from earlier work
[5] = tested on: Potato acid phosphatase (PoAP); assay: Acid phosphatase reaction, potato acid phosphatase; type: in vitro ADME; conditions: Potato acid phosphatase pH 5, 90 minutes at 37° C.
Experimental: as §1, §2, §3

[6] = tested on: Calf intestinal alkaline phosphatase (CIP); assay: Calf intestinal alkaline phosphatase (CIP) in CIP buffer (NaCl, Tris-HCl pH 8, MgCl2); conditions: 37° C., up to 90 minutes
[7] = tested on: human prostate acid phosphatase (HuPrAP); assay: human prostate acid phosphatase (HuPrAP) in sodium acetate pH 5, MgCl2; conditions: 37° C., up to 90 minutes
[8] = mouse jejunum loop fluid (loops injected with 200 μL PBS, fluid recovered after 30 minutes); conditions: 37° C., up to 120 minutes
[9] = tested on: Potato acid phosphatase (PoAP); assay: Potato acid phosphatase (PoAP) in sodium acetate pH 5, MgCl2; conditions: 37° C., up to 90 minutes
[10] = Alkaline phosphatase pH 8, 90 minutes at 37° C.

T1 sequence (P19111 20-506): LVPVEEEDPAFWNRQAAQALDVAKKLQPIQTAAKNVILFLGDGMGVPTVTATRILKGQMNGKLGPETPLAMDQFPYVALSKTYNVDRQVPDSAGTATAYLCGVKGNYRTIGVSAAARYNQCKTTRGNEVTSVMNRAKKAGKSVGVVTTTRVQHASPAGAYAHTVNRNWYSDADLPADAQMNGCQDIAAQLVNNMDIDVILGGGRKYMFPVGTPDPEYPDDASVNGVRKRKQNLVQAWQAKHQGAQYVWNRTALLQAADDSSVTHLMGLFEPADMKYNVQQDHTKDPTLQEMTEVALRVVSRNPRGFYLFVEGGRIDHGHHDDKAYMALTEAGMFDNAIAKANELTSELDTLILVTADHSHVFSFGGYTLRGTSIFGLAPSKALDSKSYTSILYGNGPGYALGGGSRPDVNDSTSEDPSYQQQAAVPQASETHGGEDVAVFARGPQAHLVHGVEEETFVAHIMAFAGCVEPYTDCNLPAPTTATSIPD

Compound: CC(C)C[C@@H]1NC(=O)[C@H](CO)NC(=O)[C@@H]2CSSC[C@@H]3NC(=O)[C@H](C)NC(=O)[C@@H]4CCCN4C(=O)[C@H](CC(N)=O)NC(=O)[C@H](CSSC[C@H](N)C(=O)N2)NC(=O)[C@H](CSSC[C@@H](C(=O)O)NC(=O)CNC(=O)[C@H]([C@@H](C)O)NC3=O)NC1=O [Dephospho-Peptide 2, CCSLCCNPACTGC] (H-CCSLCCNPACTGC-OH; disulfide 1-6, 2-10, 5-13 (inferred); N-terminus and C-terminus assumed)
- metabolism in mouse jejunum fluid (words) [1]: degraded faster in mouse intestinal fluid than peptide 2
- remaining at 2 h, 100 μg/mL [1]: 5.6%

Compound: CC(C)C[C@@H]1NC(=O)[C@H](COP(=O)(O)O)NC(=O)[C@@H]2CSSC[C@@H]3NC(=O)[C@H](C)NC(=O)[C@@H]4CCCN4C(=O)[C@H](CC(N)=O)NC(=O)[C@H](CSSC[C@H](N)C(=O)N2)NC(=O)[C@H](CSSC[C@@H](C(=O)O)NC(=O)CNC(=O)[C@H]([C@@H](C)O)NC3=O)NC1=O [Peptide 2, CCpSLCCNPACTGC] (H-CC[pS]LCCNPACTGC-OH; disulfide 1-6, 2-10, 5-13 (inferred); N-terminus and C-terminus assumed)
- Dephospho (%) [2, 10]: 100%
- remaining at 1.5 h, 0.1 mg/mL ([2]; calf, calf intestinal alkaline phosphatase (CIP), Alkaline phosphatase pH 8, 90 minutes at 37° C.): 0%
- Dephospho (%) [3]: 4.1%
- remaining at 1.5 h, 0.1 mg/mL ([3]; human prostate acid phosphatase (HuPrAP)): 95.9%
- formation of metabolite dephospho-peptide 2 ([1]; mouse jejunum loop fluid at 37° C.): Formation of dephospho-peptide 2 was observed
- remaining at 2 h, 100 μg/mL [1]: 5.3%

Compound: CC(C)C[C@@H]1NC(=O)[C@H](CCC(=O)O)NC(=O)[C@@H]2CSSC[C@@H]3NC(=O)[C@H](C)NC(=O)[C@@H]4CCCN4C(=O)[C@H](CC(N)=O)NC(=O)[C@H](CSSC[C@H](N)C(=O)N2)NC(=O)[C@H](CSSC[C@@H](C(=O)N[C@@H](Cc2ccc(O)cc2)C(=O)O)NC(=O)CNC(=O)[C@H]([C@@H](C)O)NC3=O)NC1=O [Peptide 3, CCELCCNPACTGCY] (H-CCELCCNPACTGCY-OH; disulfide 1-6, 2-10, 5-13 (inferred); N-terminus and C-terminus assumed)
- Effect of CIP treatment on peptide (LC-MS) ([2]; with and without calf intestinal alkaline phosphatase, data not shown): not affected by CIP treatment
- metabolism in mouse jejunum fluid (words) [1]: not detected after 90 minutes
- metabolism in mouse jejunum fluid (words) ([1]; listed as peptide 3): degraded faster in mouse intestinal fluid than peptide 2

Compound: C[C@@H]1NC(=O)[C@@H]2CCCN2C(=O)[C@H](CC(N)=O)NC(=O)[C@@H]2CSSC[C@H](N)C(=O)N[C@H]3CSSC[C@H](NC1=O)C(=O)N[C@@H]([C@@H](C)O)C(=O)NCC(=O)N[C@H](C(=O)N[C@@H](Cc1ccc(O)cc1)C(=O)O)CSSC[C@H](NC(=O)[C@H](Cc1ccc(O)cc1)NC(=O)[C@H](CCC(=O)O)NC3=O)C(=O)N2 [linaclotide] (H-CCEYCCNPACTGCY-OH; disulfide 1-6, 2-10, 5-13)
- levels seen systemically after oral administration [4]: no detectable levels

Compound: O=[N+]([O-])c1ccc(OP(=O)(O)O)cc1 [p-nitrophenylphosphate, reference compound]
- Dephospho (%) [2, 10]: 100%
- Remaining (%) [2, 10]: 0%
- Dephospho (%) [5]: 100%
- Remaining (%) [5]: 0%
- Dephospho (%) [3]: 100%
- Remaining (%) [3]: 0%

- not cleaved [6]: not affected by CIP treatment
Compound: CCELCCNPACTGCY

- fragment found [7]: Dephospho-Peptide 2
- fragment found [8]: dephospho-peptide 2
- fragment found [6]: Dephospho-Peptide 2
Compound: CCpSLCCNPACTGC

- fragment found [9]: Dephospho-Peptide 1
- fragment found [7]: Dephospho-Peptide 1
- fragment found [6]: Dephospho-Peptide 1
Compound: CCpSLCCNPACTGCY
